From paper PMC8371461 (Frontiers in Pharmacology, 2021)

How the values were obtained:
AAK1 = biological target: T1, AAK1 (Homo sapiens, UniProt Q2M2I8); test: kinome scan; type: binding; conditions: 10 µM
T1 construct: purchased DiscoverX (KINOMEscan)

[1] = biological target: T2, ABL1(H396P)-nonphosphorylated (Homo sapiens, UniProt P00519, H396P); test: kinome scan; type: binding; conditions: 10 µM
T2 construct: purchased DiscoverX (KINOMEscan)

ACVR2A = biological target: T3, ACVR2A (Homo sapiens, UniProt P27037); test: kinome scan; type: binding; conditions: 10 µM
T3 construct: purchased DiscoverX (KINOMEscan)

BMPR1B = biological target: T4, BMPR1B (Homo sapiens, UniProt O00238); test: kinome scan; type: binding; conditions: 10 µM
T4 construct: purchased DiscoverX (KINOMEscan)

CAMK1 = biological target: T5, CAMK1 (Homo sapiens, UniProt Q14012); test: kinome scan; type: binding; conditions: 10 µM
T5 construct: purchased DiscoverX (KINOMEscan)

CAMK2A = biological target: T6, CAMK2A (Homo sapiens, UniProt Q9UQM7); test: kinome scan; type: binding; conditions: 10 µM
T6 construct: purchased DiscoverX (KINOMEscan)

CIT = biological target: T7, CIT (Homo sapiens, UniProt O14578); test: kinome scan; type: binding; conditions: 10 µM
T7 construct: purchased DiscoverX (KINOMEscan)

CSNK1G3 = biological target: T8, CSNK1G3 (Homo sapiens, UniProt Q9Y6M4); test: kinome scan; type: binding
T8 construct: purchased DiscoverX (KINOMEscan)
T8 sequence (Q9Y6M4 whole entry): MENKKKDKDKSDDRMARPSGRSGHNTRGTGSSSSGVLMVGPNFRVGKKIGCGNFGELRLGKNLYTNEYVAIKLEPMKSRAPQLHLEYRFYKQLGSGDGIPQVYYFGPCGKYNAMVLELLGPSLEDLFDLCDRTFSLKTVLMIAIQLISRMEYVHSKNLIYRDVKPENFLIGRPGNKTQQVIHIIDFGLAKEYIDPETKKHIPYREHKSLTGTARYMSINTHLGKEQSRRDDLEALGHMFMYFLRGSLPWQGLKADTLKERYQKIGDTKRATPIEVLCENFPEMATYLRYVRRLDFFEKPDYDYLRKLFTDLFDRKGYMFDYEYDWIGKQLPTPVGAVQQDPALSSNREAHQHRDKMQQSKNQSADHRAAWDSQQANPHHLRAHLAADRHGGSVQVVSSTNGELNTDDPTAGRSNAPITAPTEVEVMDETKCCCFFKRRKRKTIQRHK

DAPK2 = biological target: T9, DAPK2 (Homo sapiens, UniProt Q9UIK4); test: kinome scan; type: binding; conditions: 10 µM
T9 construct: purchased DiscoverX (KINOMEscan)

DCAMKL1 = biological target: T10, DCAMKL1 (Homo sapiens, UniProt O15075); test: kinome scan; type: binding; conditions: 10 µM
T10 construct: purchased DiscoverX (KINOMEscan)

EPHA3 = biological target: T11, EPHA3 (Homo sapiens, UniProt P29320); test: kinome scan; type: binding; conditions: 10 µM
T11 construct: purchased DiscoverX (KINOMEscan)

EPHA4 = biological target: T12, EPHA4 (Homo sapiens, UniProt P54764); test: kinome scan; type: binding; conditions: 10 µM
T12 construct: purchased DiscoverX (KINOMEscan)

EPHB1 = biological target: T13, EPHB1 (Homo sapiens, UniProt P54762); test: kinome scan; type: binding; conditions: 10 µM
T13 construct: purchased DiscoverX (KINOMEscan)

ERK2 = biological target: T14, ERK2 (Homo sapiens, UniProt P28482); test: kinome scan; type: binding; conditions: 10 µM
T14 construct: purchased DiscoverX (KINOMEscan)
T14 sequence (P28482 whole entry): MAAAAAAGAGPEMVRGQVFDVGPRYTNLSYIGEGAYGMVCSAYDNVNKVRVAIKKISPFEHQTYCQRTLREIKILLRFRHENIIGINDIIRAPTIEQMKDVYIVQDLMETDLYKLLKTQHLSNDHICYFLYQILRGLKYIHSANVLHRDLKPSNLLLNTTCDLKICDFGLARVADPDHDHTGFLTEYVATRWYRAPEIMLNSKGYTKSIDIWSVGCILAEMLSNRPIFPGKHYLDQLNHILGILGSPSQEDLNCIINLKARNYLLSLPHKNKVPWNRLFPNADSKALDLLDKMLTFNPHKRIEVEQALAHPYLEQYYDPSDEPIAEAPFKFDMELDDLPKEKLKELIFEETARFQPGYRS

FGFR1 = biological target: T15, FGFR1 (Homo sapiens, UniProt P11362); test: kinome scan; type: binding; conditions: 10 µM
T15 construct: purchased DiscoverX (KINOMEscan)

IGF1R = biological target: T16, IGF1R (Homo sapiens, UniProt P08069); test: kinome scan; type: binding; conditions: 10 µM
T16 construct: purchased DiscoverX (KINOMEscan)

IKK-beta = biological target: T17, IKK-beta (Homo sapiens, UniProt O14920); test: kinome scan; type: binding; conditions: 10 µM
T17 construct: purchased DiscoverX (KINOMEscan)

MAK = biological target: T18, MAK (Homo sapiens, UniProt P20794); test: kinome scan; type: binding; conditions: 10 µM
T18 construct: purchased DiscoverX (KINOMEscan)

MAP3K15 = biological target: T19, MAP3K15 (Homo sapiens, UniProt Q6ZN16); test: kinome scan; type: binding; conditions: 10 µM
T19 construct: purchased DiscoverX (KINOMEscan)
T19 sequence (Q6ZN16 whole entry): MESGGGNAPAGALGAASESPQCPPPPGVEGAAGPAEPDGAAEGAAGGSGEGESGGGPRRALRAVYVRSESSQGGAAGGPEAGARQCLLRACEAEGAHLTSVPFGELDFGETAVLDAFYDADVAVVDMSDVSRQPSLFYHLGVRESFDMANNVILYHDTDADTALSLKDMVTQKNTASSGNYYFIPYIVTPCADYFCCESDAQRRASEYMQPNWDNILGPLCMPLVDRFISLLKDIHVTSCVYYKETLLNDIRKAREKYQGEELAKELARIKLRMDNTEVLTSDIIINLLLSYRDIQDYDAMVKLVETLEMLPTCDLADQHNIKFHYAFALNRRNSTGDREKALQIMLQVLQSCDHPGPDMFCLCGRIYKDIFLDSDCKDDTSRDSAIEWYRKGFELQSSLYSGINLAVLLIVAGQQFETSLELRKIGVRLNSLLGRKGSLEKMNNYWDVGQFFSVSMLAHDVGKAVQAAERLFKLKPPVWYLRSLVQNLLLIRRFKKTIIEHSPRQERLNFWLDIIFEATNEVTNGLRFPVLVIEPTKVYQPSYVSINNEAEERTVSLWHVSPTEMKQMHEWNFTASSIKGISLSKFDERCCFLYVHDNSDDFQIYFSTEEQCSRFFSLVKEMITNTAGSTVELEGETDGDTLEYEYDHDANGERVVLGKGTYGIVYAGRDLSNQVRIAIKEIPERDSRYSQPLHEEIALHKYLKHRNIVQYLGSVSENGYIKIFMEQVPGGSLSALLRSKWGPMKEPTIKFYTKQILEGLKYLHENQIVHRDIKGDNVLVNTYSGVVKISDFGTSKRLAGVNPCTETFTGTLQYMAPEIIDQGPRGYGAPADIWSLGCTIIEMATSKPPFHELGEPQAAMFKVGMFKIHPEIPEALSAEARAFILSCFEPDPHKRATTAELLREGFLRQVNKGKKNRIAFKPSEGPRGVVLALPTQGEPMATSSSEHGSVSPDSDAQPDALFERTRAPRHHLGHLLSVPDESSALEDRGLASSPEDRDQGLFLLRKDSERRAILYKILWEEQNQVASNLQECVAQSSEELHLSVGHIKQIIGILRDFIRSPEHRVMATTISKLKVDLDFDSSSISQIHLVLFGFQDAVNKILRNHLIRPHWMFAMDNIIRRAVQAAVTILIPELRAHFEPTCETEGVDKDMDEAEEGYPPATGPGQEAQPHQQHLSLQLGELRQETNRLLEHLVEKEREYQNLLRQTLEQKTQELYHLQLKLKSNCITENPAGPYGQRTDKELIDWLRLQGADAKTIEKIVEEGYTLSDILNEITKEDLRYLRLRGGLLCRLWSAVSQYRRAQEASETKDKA

MAPKAPK2 = biological target: T20, MAPKAPK2 (Homo sapiens, UniProt P49137); test: kinome scan; type: binding; conditions: 10 µM
T20 construct: purchased DiscoverX (KINOMEscan)

MAPKAPK5 = biological target: T21, MAPKAPK5 (Homo sapiens, UniProt Q8IW41); test: kinome scan; type: binding; conditions: 10 µM
T21 construct: purchased DiscoverX (KINOMEscan)

MEK4 = biological target: T22, MEK4 (Homo sapiens, UniProt P45985); test: kinome scan; type: binding; conditions: 10 µM
T22 construct: purchased DiscoverX (KINOMEscan)
T22 sequence (P45985 whole entry): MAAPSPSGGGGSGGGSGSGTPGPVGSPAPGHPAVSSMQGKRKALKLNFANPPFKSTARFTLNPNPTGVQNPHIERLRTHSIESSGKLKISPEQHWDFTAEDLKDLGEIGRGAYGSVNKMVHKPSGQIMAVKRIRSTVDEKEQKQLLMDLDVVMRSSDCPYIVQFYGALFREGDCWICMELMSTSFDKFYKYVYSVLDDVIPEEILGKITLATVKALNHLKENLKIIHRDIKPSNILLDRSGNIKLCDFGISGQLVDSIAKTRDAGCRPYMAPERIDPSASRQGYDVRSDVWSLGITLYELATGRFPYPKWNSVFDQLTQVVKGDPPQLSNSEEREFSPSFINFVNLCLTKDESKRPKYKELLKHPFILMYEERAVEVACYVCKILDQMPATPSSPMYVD

MRCKA = biological target: T23, MRCKA (Homo sapiens, UniProt Q5VT25); test: kinome scan; type: binding; conditions: 10 µM
T23 construct: purchased DiscoverX (KINOMEscan)

MYLK2 = biological target: T24, MYLK2 (Homo sapiens, UniProt Q9H1R3); test: kinome scan; type: binding; conditions: 10 µM
T24 construct: purchased DiscoverX (KINOMEscan)

p38-alpha = biological target: T25, p38-alpha (Homo sapiens, UniProt Q16539); test: kinome scan; type: binding; conditions: 10 µM
T25 construct: purchased DiscoverX (KINOMEscan)

p38-gamma = biological target: T26, p38-gamma (Homo sapiens, UniProt P53778); test: kinome scan; type: binding; conditions: 10 µM
T26 construct: purchased DiscoverX (KINOMEscan)

PCTK3 = biological target: T27, PCTK3 (Homo sapiens, UniProt Q07002); test: kinome scan; type: binding; conditions: 10 µM
T27 construct: purchased DiscoverX (KINOMEscan)

PDPK1 = biological target: T28, PDPK1 (Homo sapiens, UniProt O15530); test: kinome scan; type: binding; conditions: 10 µM
T28 construct: purchased DiscoverX (KINOMEscan)

PFTAIRE2 = biological target: T29, PFTAIRE2 (Homo sapiens, UniProt Q96Q40); test: kinome scan; type: binding; conditions: 10 µM
T29 construct: purchased DiscoverX (KINOMEscan)

PHKG2 = biological target: T30, PHKG2 (Homo sapiens, UniProt P15735); test: kinome scan; type: binding; conditions: 10 µM
T30 construct: purchased DiscoverX (KINOMEscan)

PIK3CB = biological target: T31, PIK3CB (Homo sapiens, UniProt P42338); test: kinome scan; type: binding
T31 construct: purchased DiscoverX (KINOMEscan)
T31 sequence (P42338 whole entry): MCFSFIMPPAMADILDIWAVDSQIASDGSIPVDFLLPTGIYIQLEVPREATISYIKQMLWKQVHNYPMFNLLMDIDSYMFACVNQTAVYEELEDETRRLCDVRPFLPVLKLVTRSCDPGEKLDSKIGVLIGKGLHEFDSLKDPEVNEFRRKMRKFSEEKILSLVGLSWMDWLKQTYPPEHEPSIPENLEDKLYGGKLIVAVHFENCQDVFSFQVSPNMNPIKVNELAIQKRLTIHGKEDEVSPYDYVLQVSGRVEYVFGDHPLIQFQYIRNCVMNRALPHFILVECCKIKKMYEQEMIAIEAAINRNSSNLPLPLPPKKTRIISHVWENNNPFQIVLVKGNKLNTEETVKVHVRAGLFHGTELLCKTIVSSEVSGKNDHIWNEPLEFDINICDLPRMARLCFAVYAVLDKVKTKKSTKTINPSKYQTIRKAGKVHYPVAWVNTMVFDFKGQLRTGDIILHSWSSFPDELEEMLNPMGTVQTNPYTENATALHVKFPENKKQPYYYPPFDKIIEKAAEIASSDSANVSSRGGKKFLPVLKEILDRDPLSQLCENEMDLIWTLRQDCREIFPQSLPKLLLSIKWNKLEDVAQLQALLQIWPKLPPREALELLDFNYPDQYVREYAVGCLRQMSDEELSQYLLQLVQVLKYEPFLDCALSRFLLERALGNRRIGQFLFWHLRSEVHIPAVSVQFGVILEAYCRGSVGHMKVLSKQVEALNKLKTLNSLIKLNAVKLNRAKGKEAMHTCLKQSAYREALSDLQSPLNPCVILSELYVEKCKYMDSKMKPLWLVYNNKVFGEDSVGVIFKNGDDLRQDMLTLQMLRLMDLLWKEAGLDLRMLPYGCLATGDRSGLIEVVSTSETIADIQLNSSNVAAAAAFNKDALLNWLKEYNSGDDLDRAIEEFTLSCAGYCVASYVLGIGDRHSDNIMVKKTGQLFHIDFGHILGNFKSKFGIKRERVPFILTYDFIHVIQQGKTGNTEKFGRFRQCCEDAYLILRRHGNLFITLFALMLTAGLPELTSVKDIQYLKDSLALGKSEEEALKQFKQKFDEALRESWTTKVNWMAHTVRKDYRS

PIK4CB = biological target: T32, PIK4CB (Homo sapiens, UniProt Q9UBF8); test: kinome scan; type: binding
T32 construct: purchased DiscoverX (KINOMEscan)
T32 sequence (Q9UBF8 whole entry): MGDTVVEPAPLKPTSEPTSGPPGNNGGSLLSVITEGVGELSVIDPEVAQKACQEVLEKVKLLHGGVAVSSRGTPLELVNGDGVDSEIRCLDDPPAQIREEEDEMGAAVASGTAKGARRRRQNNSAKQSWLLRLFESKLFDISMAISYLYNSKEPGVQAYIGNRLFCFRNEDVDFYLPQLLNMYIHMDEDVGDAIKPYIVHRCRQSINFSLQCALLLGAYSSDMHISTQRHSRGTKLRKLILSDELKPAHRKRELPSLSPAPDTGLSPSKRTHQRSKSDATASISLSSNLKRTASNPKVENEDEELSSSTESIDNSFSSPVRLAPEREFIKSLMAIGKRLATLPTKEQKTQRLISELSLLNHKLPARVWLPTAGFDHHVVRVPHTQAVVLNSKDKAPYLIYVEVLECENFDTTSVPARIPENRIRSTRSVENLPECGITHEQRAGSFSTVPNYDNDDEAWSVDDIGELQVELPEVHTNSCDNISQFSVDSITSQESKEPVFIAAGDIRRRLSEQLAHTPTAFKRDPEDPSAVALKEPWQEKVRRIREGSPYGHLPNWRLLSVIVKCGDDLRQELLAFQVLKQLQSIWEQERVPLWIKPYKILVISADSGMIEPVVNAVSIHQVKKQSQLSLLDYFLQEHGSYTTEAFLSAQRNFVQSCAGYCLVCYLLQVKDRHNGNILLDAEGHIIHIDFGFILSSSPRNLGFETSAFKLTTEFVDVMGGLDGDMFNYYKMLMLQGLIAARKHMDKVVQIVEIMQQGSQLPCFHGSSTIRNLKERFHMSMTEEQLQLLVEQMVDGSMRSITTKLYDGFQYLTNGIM

PRKCQ = biological target: T33, PRKCQ (Homo sapiens, UniProt Q04759); test: kinome scan; type: binding; conditions: 10 µM
T33 construct: purchased DiscoverX (KINOMEscan)

PRKD2 = biological target: T34, PRKD2 (Homo sapiens, UniProt Q9BZL6); test: kinome scan; type: binding; conditions: 10 µM
T34 construct: purchased DiscoverX (KINOMEscan)

PRKR = biological target: T35, PRKR (Homo sapiens, UniProt P19525); test: kinome scan; type: binding; conditions: 10 µM
T35 construct: purchased DiscoverX (KINOMEscan)

RIPK1 = biological target: T36, RIPK1 (Homo sapiens, UniProt Q13546); test: kinome scan; type: binding; conditions: 10 µM
T36 construct: purchased DiscoverX (KINOMEscan)
T36 sequence (Q13546 whole entry): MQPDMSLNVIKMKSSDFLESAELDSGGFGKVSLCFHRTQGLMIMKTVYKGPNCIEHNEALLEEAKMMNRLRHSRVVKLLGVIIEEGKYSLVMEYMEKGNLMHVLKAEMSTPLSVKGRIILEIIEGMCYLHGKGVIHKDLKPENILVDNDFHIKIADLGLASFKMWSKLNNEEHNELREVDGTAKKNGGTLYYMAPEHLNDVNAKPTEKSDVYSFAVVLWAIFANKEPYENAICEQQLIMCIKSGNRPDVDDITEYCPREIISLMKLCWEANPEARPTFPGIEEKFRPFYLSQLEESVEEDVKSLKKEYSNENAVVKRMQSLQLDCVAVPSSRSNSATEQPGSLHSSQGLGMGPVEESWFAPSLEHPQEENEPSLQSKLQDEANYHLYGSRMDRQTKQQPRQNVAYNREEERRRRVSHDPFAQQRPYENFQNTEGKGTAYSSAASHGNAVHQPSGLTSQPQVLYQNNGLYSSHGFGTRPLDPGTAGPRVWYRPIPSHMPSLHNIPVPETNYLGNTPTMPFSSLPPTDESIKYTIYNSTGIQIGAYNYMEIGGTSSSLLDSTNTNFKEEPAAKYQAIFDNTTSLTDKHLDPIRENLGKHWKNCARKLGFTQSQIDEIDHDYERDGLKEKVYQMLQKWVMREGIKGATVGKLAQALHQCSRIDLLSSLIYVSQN

RIPK5 = biological target: T37, RIPK5 (Homo sapiens, UniProt Q6XUX3); test: kinome scan; type: binding; conditions: 10 µM
T37 construct: purchased DiscoverX (KINOMEscan)

[2] = biological target: T38, RPS6KA5(Kin.Dom.1-N-terminal) (Homo sapiens, UniProt O75582); test: kinome scan; type: binding; conditions: 10 µM
T38 construct: RPS6KA5(Kin.Dom.1-N-terminal); purchased DiscoverX (KINOMEscan)

[3] = biological target: T39, RPS6KA5(Kin.Dom.2-C-terminal) (Homo sapiens, UniProt O75582); test: kinome scan; type: binding; conditions: 10 µM
T39 construct: RPS6KA5(Kin.Dom.2-C-terminal); purchased DiscoverX (KINOMEscan)

[4] = biological target: T40, TYK2(JH1domain-catalytic) (Homo sapiens, UniProt P29597); test: kinome scan; type: binding; conditions: 10 µM
T40 construct: TYK2(JH1domain-catalytic); purchased DiscoverX (KINOMEscan)

VEGFR2 = biological target: T41, VEGFR2 (Homo sapiens, UniProt P35968); test: kinome scan; type: binding; conditions: 10 µM
T41 construct: purchased DiscoverX (KINOMEscan)

CGR8 PSC = test: ATP quantification (ATPlite), cell proliferation/viability; type: cell-based, mouse; conditions: PSC exposed for three days
Description: Cell viability was measured in PSC by using the ATPlite Luminescence Assay System (Perkin Elmer). PSC were plated in gelatine-coated 96-well plates at a density of 10,000 cells-cm^2 in their standard medium. At different time points, the substrate for emission of luminescence in the presence of ATP was added according to the manufacturer’s instructions. Luminescence was measured with the SpectraMax L Microplate Luminometer (Molecular Devices).
The effects of the drug on proliferation or differentiation was next investigated in quantitative assays.

Nc1ccc(N=Nc2ccccc2)c(N)n1 [phenazopyridine, 2,6-diamino-3-(phenylazo)pyridine]
kinase inhibition (AAK1): 79 | kinase inhibition [1]: 48 | kinase inhibition (ACVR2A): 94 | kinase inhibition (BMPR1B): 95 | kinase inhibition (CAMK1): 100 | kinase inhibition (CAMK2A): 97 | kinase inhibition (CIT): 72 | kinase inhibition (CSNK1G3; CSNK1G3, 10 µM): 100 | remaining binding at 10 µM (CSNK1G3; Casein kinase 1 isoform γ 3 (CK1), read-out: Kinome scan (% of control at 10 µM)): 44% | kinase inhibition (DAPK2): 100 | kinase inhibition (DCAMKL1): 100 | kinase inhibition (EPHA3): 81 | kinase inhibition (EPHA4): 86 | kinase inhibition (EPHB1): 100 | kinase inhibition (ERK2): 92 | kinase inhibition (FGFR1): 100 | kinase inhibition (IGF1R): 100 | kinase inhibition (IKK-beta): 89 | kinase inhibition (MAK): 100 | kinase inhibition (MAP3K15): 94 | kinase inhibition (MAPKAPK2): 86 | kinase inhibition (MAPKAPK5): 100 | kinase inhibition (MEK4): 48 | kinase inhibition (MRCKA): 99 | kinase inhibition (MYLK2): 91 | kinase inhibition (p38-alpha): 100 | kinase inhibition (p38-gamma): 100 | kinase inhibition (PCTK3): 75 | kinase inhibition (PDPK1): 100 | kinase inhibition (PFTAIRE2): 96 | kinase inhibition (PHKG2): 100 | remaining binding (% of control) (PIK3CB; 10 µM): 22 | remaining binding at 10 µM (PIK3CB; read-out: % Of control): 22% | remaining kinase binding (% of control) (PIK4CB; 10 µM): 4.6 | remaining binding at 10 µM (PIK4CB; read-out: % Of control): 4.6% | kinase inhibition (PRKCQ): 81 | kinase inhibition (PRKD2): 100 | kinase inhibition (PRKR): 86 | remaining binding (% of control) (RIPK1): 100 | kinase inhibition (RIPK5): 68 | kinase inhibition [2]: 100 | kinase inhibition [3]: 100 | remaining binding (% of control) [4]: 100 | kinase inhibition (VEGFR2): 97 | ATP levels (CGR8 PSC): unchanged
